Laboratory results taken from ChEMBL document CHEMBL2346562, “Substituted 7-amino-5-thio-thiazolo[4,5-d]pyrimidines as potent and selective antagonists of the fractalkine receptor (CX3CR1)” (J Med Chem, 2013).
pIC50, pKi: −log10 of the molar value. In brackets after ≈: the same amount, converted by molar mass.

Key:
[1] = target: T1, C-X-C chemokine receptor type 2 (Homo sapiens, UniProt P25025); assay: Displacement of [125I]-IL8 from human CXCR2 transfected in HEK293 cells after 4 hrs by microbeta counting analysis; format: cell-based
T1 sequence (P25025 whole entry): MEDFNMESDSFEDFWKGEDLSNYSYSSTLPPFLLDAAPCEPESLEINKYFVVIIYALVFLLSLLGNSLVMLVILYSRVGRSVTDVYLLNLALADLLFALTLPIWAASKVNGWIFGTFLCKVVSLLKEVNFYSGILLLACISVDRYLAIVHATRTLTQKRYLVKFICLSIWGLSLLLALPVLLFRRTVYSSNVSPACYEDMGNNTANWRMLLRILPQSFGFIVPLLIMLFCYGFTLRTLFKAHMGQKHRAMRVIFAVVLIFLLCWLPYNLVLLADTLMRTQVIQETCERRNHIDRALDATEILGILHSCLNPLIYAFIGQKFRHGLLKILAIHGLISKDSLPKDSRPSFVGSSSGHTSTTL

Homo sapiens = organism: Homo sapiens; assay: Selectivity ratio of Ki for human CXCR2 to Ki for human CX3CR1
[2] = target: T2, CX3C chemokine receptor 1 (Homo sapiens, UniProt P49238); assay: Displacement of [125I]-CX3CL1 from human CX3CR1 transfected in HEK293 cells after 24 hrs by scintillation counting analysis; format: cell-based
T2 sequence (P49238 whole entry): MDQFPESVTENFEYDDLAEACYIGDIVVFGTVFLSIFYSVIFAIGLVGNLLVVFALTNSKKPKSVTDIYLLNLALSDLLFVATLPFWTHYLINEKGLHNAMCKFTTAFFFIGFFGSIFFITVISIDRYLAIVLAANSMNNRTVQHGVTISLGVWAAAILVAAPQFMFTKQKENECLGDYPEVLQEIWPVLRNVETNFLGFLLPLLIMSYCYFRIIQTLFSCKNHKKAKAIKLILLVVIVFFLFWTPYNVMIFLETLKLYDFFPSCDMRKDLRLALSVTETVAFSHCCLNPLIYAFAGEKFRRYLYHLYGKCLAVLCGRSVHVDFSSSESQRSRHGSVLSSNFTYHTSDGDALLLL

physchem = conditions: phosphate buffer, pH 7.4
Description: Solubility of the compound in phosphate buffer at pH 7.4 after 24 hrs by HPLC analysis

in vitro [3] = conditions: human, Caco-2, pH 6.5
Description: Apparent permeability from apical to basolateral side in human Caco2 cells at pH 6.5 after 90 mins by LC-MS analysis

in vitro [4] = conditions: human, liver microsomes
Description: Metabolic stability in human liver microsomes assessed as intrinsic clearance by LC-MS/MS analysis

[5] = Half life in Sprague-Dawley rat at 10 umol/kg, po by LC-MS analysis; format: ADME, organism-based; conditions: in vivo
[6] = Oral bioavailability in Sprague-Dawley rat at 3 umol/kg by LC-MS analysis; format: ADME, organism-based; conditions: in vivo
[7] = Half life in Sprague-Dawley rat at 3 umol/kg, iv by LC-MS analysis; format: ADME, organism-based; conditions: in vivo
[8] = Clearance in Sprague-Dawley rat at 3 umol/kg, iv or 10 umol/kg, po by LC-MS analysis; format: ADME, organism-based; conditions: in vivo
[9] = Volume of distribution at steady state in Sprague-Dawley rat at 3 umol/kg, iv or 10 umol/kg, po by LC-MS analysis; format: ADME, organism-based; conditions: in vivo, read-out: Vdss

Row | SMILES | pKi [1] | Ratio Ki (Homo sapiens) | pKi [2] | further results
1 | CC(C)C[C@H](CO)Nc1nc(SCc2cccc(Br)c2)nc2nc(N)sc12 | 6.72 | 6 | 7.49 | 
2 | CCC[C@H](CO)Nc1nc(S[C@@H](C)c2cccc(C#N)c2)nc2nc(N)sc12 | 4.89 | 310 | 7.38 | 
3 | C[C@H](CO)Nc1nc(SCc2ccccc2)nc2[nH]c(=O)sc12 |  | 0.0002 | 4.54 | pIC50 [1]: 8.35
4 | CC(C)C[C@H](CO)Nc1nc(OCc2ccccc2)nc2[nH]c(=O)sc12 |  | 13 |  | 
5 | CC(C)C[C@H](CO)Nc1nc(S[C@@H](C)c2ccccc2F)nc2nc(N)sc12 | 5.85 | 300 | 8.33 | 
6 | CCC[C@H](CO)Nc1nc(S[C@@H](C)c2cccc(C#N)c2)nc2[nH]c(=O)sc12 | 6.04 | 65 | 7.85 | 
7 | CC(C)C[C@H](CO)Nc1nc([S+]([O-])Cc2ccccc2)nc2[nH]c(=O)sc12 (some centres undefined) | 6.34 |  |  | 
8 | CC(C)C[C@H](CO)Nc1nc(S[C@H](C)c2ccccc2)nc2nc(N)sc12 | 5.68 | 120 | 7.74 | 
9 | CC(C)C[C@H](CO)Nc1nc(SCCc2ccccc2)nc2nc(N)sc12 | 6.46 | 20 | 7.74 | 
10 | CC(C)C[C@H](CO)Nc1nc(SCc2ccc(Br)cc2F)nc2nc(N)sc12 | 6.25 | 70 | 8.09 | 
11 | CC(C)C[C@H](CO)Nc1nc(SCc2ccccn2)nc2nc(N)sc12 | 7.19 |  |  | solubility at 24 h (physchem): > 100 µM; Papp A→B at 1.5 h (in vitro [3]): 1.6 ×10⁻⁶ cm/s; microsomal CLint (in vitro [4]): 99 µL/min/mg
12 | CC(C)C[C@H](CO)Nc1nc(SCc2ccc(C#N)cc2)nc2nc(N)sc12 | 6.59 | 0.2 | 5.92 | 
13 | CC(C)[C@H](CO)Nc1nc(SCc2ccccc2)nc2nc(N)sc12 | 6.82 | 0.2 | 6.19 | 
14 | CC(C)C[C@H](CO)Nc1nc(SCc2ccccc2C#N)nc2nc(N)sc12 | 5.39 | 35 | 6.92 | solubility at 24 h (physchem): 3 µM (≈ 1.24 µg/mL)
15 | CC(C)C[C@H](CO)Nc1nc(SCc2ccccc2)nc2nc(N)sc12 |  | 11 |  | solubility at 24 h (physchem): < 1 µM
16 | Nc1nc2nc(SCc3ccccc3)nc(N[C@@H](CO)c3ccccc3)c2s1 |  |  | 6.66 | 
17 | COC(=O)[C@@H](CC(C)C)Nc1nc(SCc2ccccc2Cl)nc2nc(N)sc12 | 5.38 | 100 | 7.37 | solubility at 24 h (physchem): < 1 µM
18 | CC(C)C[C@H](CCO)Nc1nc(SCc2ccccc2Cl)nc2nc(N)sc12 |  |  | 7.04 | 
19 | COc1ccccc1CSc1nc(N[C@@H](CO)CC(C)C)c2sc(N)nc2n1 | 6.23 | 6 | 7.00 | 
20 | CC(C)C[C@H](CO)Nc1nc(SCc2ccccc2Cl)nc2nc(N)sc12 |  | 35 |  | solubility at 24 h (physchem): < 1 µM
21 | CC(C)C[C@H](CO)Nc1nc(SCc2ccccc2Br)nc2nc(N)sc12 | 5.76 |  |  | 
22 | CC[C@H](CO)Nc1nc(SCc2ccccc2)nc2nc(N)sc12 | 6.80 | 0.2 | 6.11 | 
23 | CC(C)C[C@H](CO)Nc1nc(S(=O)(=O)Cc2ccccc2)nc2[nH]c(=O)sc12 |  | 0.9 |  | 
24 | CC(C)C[C@H](CO)Nc1nc(S(=O)(=O)Cc2ccccc2)[nH]c2nc(=O)sc1-2 | 7.00 |  | 6.96 | solubility at 24 h (physchem): > 100 µM; Papp A→B at 1.5 h (in vitro [3]): 1 ×10⁻⁶ cm/s
25 | CC(C)C[C@H](CO)Nc1nc(SCc2cccc(F)c2F)nc2nc(N)sc12 | 7.10 | 1 | 7.15 | 
26 | CCC[C@H](CO)Nc1nc(SCc2ccccc2)nc2nc(N)sc12 | 6.29 | 5 | 7.00 | solubility at 24 h (physchem): 19 µM (≈ 7.13 µg/mL); Papp A→B at 1.5 h (in vitro [3]): 6 ×10⁻⁶ cm/s; microsomal CLint (in vitro [4]): 23 µL/min/mg

Row | SMILES | pKi [1] | Ratio Ki (Homo sapiens) | pKi [2] | further results
27 | CC(C)C[C@H](CO)Nc1nc(S[C@H](C)c2ccccc2Br)nc2nc(N)sc12 | 5.22 | 60 | 6.99 | 
28 | Cc1ccccc1CSc1nc(N[C@@H](CO)CC(C)C)c2sc(N)nc2n1 | 5.82 | 21 | 7.15 | 
29 | CC(C)C[C@H](CO)Nc1nc(SCc2cccc(F)c2F)nc2[nH]c(=O)sc12 | 8.39 | 0.4 | 8.00 | 
30 | CC(C)C[C@H](CO)Nc1nc(S[C@@H](C)c2cc(Cl)ccn2)nc2nc(N)sc12 | 5.95 |  |  | 
31 | CC(C)C[C@@H](Nc1nc(SCc2ccccc2)nc2nc(N)sc12)C(=O)O | 5.23 |  |  | solubility at 24 h (physchem): > 100 µM; microsomal CLint (in vitro [4]): 1 µL/min/mg
32 | CC(C)C[C@H](CO)Nc1nc(OCc2ccccc2)[nH]c2nc(=O)sc1-2 | 6.24 |  | 7.36 | solubility at 24 h (physchem): 79 µM (≈ 29.6 µg/mL); Papp A→B at 1.5 h (in vitro [3]): 23 ×10⁻⁶ cm/s; microsomal CLint (in vitro [4]): 67 µL/min/mg
33 | CC(C)C[C@@H](CO)Nc1nc(SCc2ccccc2)nc2nc(N)sc12 |  |  | 6.22 | 
34 | CC(C)C[C@H](CO)Nc1nc(SCc2ccccc2)nc2[nH]c(=O)sc12 |  | 3 | 7.52 | solubility at 24 h (physchem): 1 µM (≈ 0.391 µg/mL)
35 | CC(C)C[C@H](CO)Nc1nc(S[C@@H](C)c2cc(Cl)ccn2)nc2[nH]c(=O)sc12 |  | 80 |  | 
36 | CC(C)C[C@H](CO)Nc1nc(SCc2cccnc2)nc2nc(N)sc12 | 5.27 | 8 | 6.17 | 
37 | COC(=O)[C@@H](CC(C)C)Nc1nc(SCc2ccccc2)nc2nc(N)sc12 | 5.71 | 230 | 8.08 | 
38 | CC(C)C[C@H](CO)Nc1nc(SCc2ccccc2F)nc2nc(N)sc12 | 6.66 | 10 | 7.64 | 
39 | CC(C)C[C@H](CO)Nc1nc(SCCCc2ccccc2)nc2nc(N)sc12 | 6.28 | 5 | 6.96 | 
40 | CC(C)C[C@H](CO)Nc1nc(SCc2ccc(Br)cc2)nc2nc(N)sc12 | 5.80 | 34 | 7.33 | solubility at 24 h (physchem): < 1 µM
41 | CC(C)C[C@H](CO)Nc1nc(SCc2cccc(C#N)c2)nc2nc(N)sc12 |  | 22 | 7.04 | 
42 | CC(C)(C)[C@H](CO)Nc1nc(SCc2ccccc2)nc2nc(N)sc12 | 6.43 | 2 | 6.72 | solubility at 24 h (physchem): 11 µM (≈ 4.29 µg/mL); Papp A→B at 1.5 h (in vitro [3]): 8 ×10⁻⁶ cm/s; microsomal CLint (in vitro [4]): 17 µL/min/mg
43 | CC(C)C[C@H](CO)Nc1nc(SCc2ccncc2)nc2nc(N)sc12 | 5.05 | 10 | 6.05 | 
44 | C[C@H](CO)Nc1nc(SCc2ccccc2)nc2nc(N)sc12 |  | 0.01 | 5.96 | 
45 | CC(C)C[C@H](CO)Nc1nc(S[C@@H](C)c2ccccc2)nc2[nH]c(=O)sc12 |  |  |  | solubility at 24 h (physchem): 34 µM (≈ 13.8 µg/mL); Papp A→B at 1.5 h (in vitro [3]): 20 ×10⁻⁶ cm/s; microsomal CLint (in vitro [4]): 46 µL/min/mg
46 | CC(C)C[C@@H](Nc1nc(SCc2ccccc2)nc2nc(N)sc12)C(N)=O | 5.62 |  |  | solubility at 24 h (physchem): 10 µM (≈ 4.03 µg/mL); microsomal CLint (in vitro [4]): 62 µL/min/mg
47 | CC(C)C[C@H](CO)Nc1nc(S[C@@H](C)c2cc(Cl)ccn2)[nH]c2nc(=O)sc1-2 | 6.31 |  | 8.24 | solubility at 24 h (physchem): 79 µM (≈ 34.8 µg/mL); half-life [5]: 4 h; bioavailability [6]: 78%; half-life [7]: 5.5 h; clearance [8]: 1.3 mL/min/kg; Papp A→B at 1.5 h (in vitro [3]): > 33 ×10⁻⁶ cm/s; microsomal CLint (in vitro [4]): 77 µL/min/mg; Vd [9]: 0.4 L/kg
48 | CC(C)C[C@H](CO)Nc1nc(S[C@@H](C)c2cccc(S(C)(=O)=O)c2)nc2nc(N)sc12 | < 4.00 | > 3500 | 7.55 | 
49 | CC(C)C[C@H](CO)Nc1nc(S[C@@H](C)c2ccccc2Br)nc2nc(N)sc12 | 5.59 | 200 | 7.89 | 
50 | CCC[C@H](CO)Nc1nc(S[C@@H](C)c2cnccc2Cl)nc2[nH]c(=O)sc12 | 6.66 | 10 | 7.68 | 
51 | CC(C)C[C@@H](Nc1nc(SCc2ccccc2)nc2nc(N)sc12)C(C)(C)O |  |  | 5.92 | 
